Test system: T1, California poppy LOX (purified LOX from California poppy seedlings; 9/13-LOX)
T1 construct: 85 kDa on SDS-PAGE
Experiment: A234 spectrophotometry; Lineweaver-Burk
Assay type: biochemical, Eschscholzia californica
Settings: 100 mM potassium phosphate pH 6.5, room temperature; 0.476-1.33 mM LA

CCCCC/C=C\C/C=C\CCCCCCCC(=O)O [linoleic acid]
Km: 2600 µM

— publication PMC6150234, “HPLC Analysis and Biochemical Characterization of LOX from Eschscholtzia californica Cham” (Molecules : A Journal of Synthetic Chemistry and Natural …, 2017)
